Assay results from ChEMBL document CHEMBL4387701, “H2depda: An acyclic adjuvant potentiates meropenem activity in vitro against metallo-β-lactamase-producing enterobacterales” (Eur J Med Chem, 2019).
Values after ≈ are worked out from the molar mass of the structure shown.

Legend:
[1] = test system: Stenotrophomonas maltophilia; assay: Potency index, ratio of EDTA IC50 to test compound IC50 for Stenotrophomonas maltophilia NDM1 expressed in Escherichia coli BL21 (DE3) expressing measured after 15 minutes at interval of 60s
[2] = biological target: T1, Metallo-beta-lactamase NDM-4 (Escherichia coli) (UniProt H6WZS9); assay: Inhibition of NDM4 in Escherichia coli isolate 3 assessed as potentiation of meropenem-induced antibacterial activity by measuring meropenem MIC after 24 hrs by broth microdilution assay (reference value: 1280 ug/ml)
T1 sequence (whole entry): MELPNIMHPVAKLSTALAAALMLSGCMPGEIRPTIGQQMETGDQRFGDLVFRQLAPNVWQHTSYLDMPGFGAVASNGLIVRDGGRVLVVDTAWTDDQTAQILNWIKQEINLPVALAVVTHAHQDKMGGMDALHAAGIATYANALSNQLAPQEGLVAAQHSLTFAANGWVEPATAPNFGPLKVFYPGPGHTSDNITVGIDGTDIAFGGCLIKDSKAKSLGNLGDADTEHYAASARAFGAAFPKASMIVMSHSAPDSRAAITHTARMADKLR

[3] = test system: Escherichia coli; assay: Inhibition of NDM1 in Escherichia coli isolate 1 assessed as potentiation of meropenem-induced antibacterial activity by measuring meropenem MIC after 24 hrs by broth microdilution assay (reference value: 1280 ug/ml)
[4] = test system: Escherichia coli ATCC 25922; assay: Inhibition of IMP-4 in Escherichia coli ATCC 25922 assessed as potentiation of meropenem-induced antibacterial activity by measuring zone of inhibition by agar disk diffusion method
[5] = test system: Escherichia coli; assay: Inhibition of NDM1 in Escherichia coli isolate 9 assessed as potentiation of meropenem-induced antibacterial activity by measuring meropenem MIC after 24 hrs by broth microdilution assay
[6] = test system: Klebsiella pneumoniae; assay: Inhibition of IMP4 in Klebsiella pneumoniae isolate 10 assessed as potentiation of meropenem-induced antibacterial activity by measuring meropenem MIC after 24 hrs by broth microdilution method (reference value: 64 ug/ml)
[7] = test system: Klebsiella pneumoniae; assay: Inhibition of IMP4 in Klebsiella pneumoniae isolate 12 assessed as potentiation of meropenem-induced antibacterial activity by measuring meropenem MIC after 24 hrs by broth microdilution method (reference value: 16 ug/ml)
[8] = test system: Escherichia coli; assay: Inhibition of IMP4 in Escherichia coli isolate 14 assessed as potentiation of meropenem-induced antibacterial activity by measuring meropenem MIC after 24 hrs by broth microdilution method (reference value: 16 ug/ml)
[9] = test system: Enterobacter cloacae; assay: Inhibition of IMP4 in Enterobacter cloacae isolate 16 assessed as potentiation of meropenem-induced antibacterial activity by measuring meropenem MIC after 24 hrs by broth microdilution method (reference value: 64 ug/ml)
[10] = test system: Klebsiella pneumoniae; assay: Inhibition of IMP4 in Klebsiella pneumoniae isolate 17 assessed as potentiation of meropenem-induced antibacterial activity by measuring meropenem MIC after 24 hrs by broth microdilution method (reference value: 32 ug/ml)
[11] = biological target: T1, Metallo-beta-lactamase NDM-4 (Escherichia coli); assay: Inhibition of NDM4 in Escherichia coli isolate 3 assessed as potentiation of meropenem-induced bactericidal activity by measuring bacterial killing in late exponential phase at 64 ug/ml incubated for 24 hrs followed by replating on agar plates for 16 to 18 hrs and measured up to 24 hrs by time kill assay; settings: TDE = time-dependent effect
[12] = Hemolytic activity in sheep RBC at 1000 ug/ml measured after 1 hr relative to control; format: ADME, cell-based, Ovis aries, Erythrocyte; settings: sheep red blood cells (erythrocytes), read-out: Activity
[13] = test system: HeLa; assay: Cytotoxicity against human HeLa cells at 64 ug/mL after 24 hrs by calcein AM/propidium iodide staining based fluorescence microscopic method; format: cell-based
[14] = Non-competitive inhibition of bacterial NDM1 (G28 to R270 residues) expressed in Escherichia coli BL21 (DE3) using varying levels of MEPM as substrate preincubated for 15 mins followed by substrate addition measured at 60 secs interval up to 60 mins by Lineweaver-Burk plot analysis; set-up: species or system Bacteria
[15] = test system: Escherichia coli; assay: Effect on growth of NDM4-positive Escherichia coli assessed as bacterial growth at 64 ug/mL after 24 hrs by broth microdilution method relative to control; format: organism-based
[16] = test system: Escherichia coli; assay: Effect on growth of Escherichia coli isolate 1 after 24 hrs by broth microdilution assay; format: organism-based
[17] = test system: Escherichia coli; assay: Effect on growth of Escherichia coli isolate 2 after 24 hrs by broth microdilution assay; format: organism-based
[18] = test system: Enterobacter cloacae; assay: Effect on growth of Enterobacter cloacae isolate 5 after 24 hrs by broth microdilution assay; format: organism-based
[19] = test system: Klebsiella pneumoniae; assay: Effect on growth of Klebsiella pneumoniae isolate 10 after 24 hrs by broth microdilution method; format: organism-based
[20] = test system: Klebsiella pneumoniae; assay: Effect on growth of Klebsiella pneumoniae isolate 13 after 24 hrs by broth microdilution method; format: organism-based
[21] = test system: Escherichia coli; assay: Effect on growth of Escherichia coli isolate 14 after 24 hrs by broth microdilution method; format: organism-based
[22] = test system: Escherichia coli; assay: Effect on growth of Escherichia coli isolate 18 after 24 hrs by broth microdilution method; format: organism-based
[23] = biological target: T1, Metallo-beta-lactamase NDM-4 (Escherichia coli); assay: Inhibition of NDM4 in Escherichia coli isolate 3 assessed as potentiation of meropenem-induced bactericidal activity by measuring log reduction in bacterial colonies at 64 ug/ml incubated for 24 hrs followed by replating on agar plates for 16 to 18 hrs and measured up to 24 hrs by time kill assay
[24] = test system: HeLa; assay: Cytotoxicity against human HeLa cells at 128 ug/mL after 24 hrs by calcein AM/propidium iodide staining based fluorescence microscopic method; format: cell-based
[25] = Competitive inhibition of bacterial NDM1 (G28 to R270 residues) expressed in Escherichia coli BL21 (DE3) using varying levels of MEPM as substrate preincubated for 15 mins followed by substrate addition measured at 60 secs interval up to 60 mins by Lineweaver-Burk plot analysis; set-up: species or system Bacteria
[26] = biological target: T1, Metallo-beta-lactamase NDM-4 (Escherichia coli); assay: Inhibition of NDM4 in Escherichia coli isolate 3 assessed as potentiation of meropenem-induced bactericidal activity by measuring bacterial killing at 64 ug/ml incubated for 24 hrs followed by replating on agar plates for 16 to 18 hrs and measured up to 24 hrs by time kill assay relative to control

| MIC [2] | MIC [3] | inhibition zone (IZ) [4] | MIC [5] | MIC [6] | MIC [7] | MIC [8] | MIC [9] | MIC [10] | Activity [15] | MIC [16] | MIC [17] | MIC [18] | MIC [19] | MIC [20] | MIC [21] | MIC [22] | SMILES | inhibition [11] | hemolysis at 1 h, 1000 ug/ml [12] | further results |
| --- | --- | --- | --- | --- | --- | --- | --- | --- | --- | --- | --- | --- | --- | --- | --- | --- | --- | --- | --- | --- |
| < 0.0312 µg/mL | 0.125 µg/mL | 15.9 mm | 0.125 µg/mL | 1 µg/mL | 1 µg/mL | 4 µg/mL | 2 µg/mL | 8 µg/mL | 95% | 32 µg/mL (≈ 56.1 µM) | 64 µg/mL (≈ 112 µM) | 64 µg/mL (≈ 112 µM) | 64 µg/mL (≈ 112 µM) | 32 µg/mL (≈ 56.1 µM) | 32 µg/mL (≈ 56.1 µM) | 32 µg/mL (≈ 56.1 µM) | COc1ccc(CN(CCN(Cc2ccc(OC)cc2)Cc2cccc(C(=O)O)n2)Cc2cccc(C(=O)O)n2)cc1 | Tde | 2.94% | Ratio IC50 [1]: 200; Activity [13]: Non-Toxic; Ki [14]: 144 nM |
| < 0.0312 µg/mL | 0.125 µg/mL | 18.3 mm | 0.25 µg/mL | 0.5 µg/mL | 0.5 µg/mL | 4 µg/mL | 2 µg/mL | 8 µg/mL | 95% | 32 µg/mL (≈ 96.9 µM) | 32 µg/mL (≈ 96.9 µM) | 64 µg/mL (≈ 194 µM) | 64 µg/mL (≈ 194 µM) | 32 µg/mL (≈ 96.9 µM) | 32 µg/mL (≈ 96.9 µM) | 32 µg/mL (≈ 96.9 µM) | O=C(O)c1cccc(CNCCNCc2cccc(C(=O)O)n2)n1 | Tde | 0.1% | FC [23]: 3; Activity [24]: Non-Toxic; Ki [25]: 680 nM; inhibition [26]: 99.9% |
